Measurements reported in patent US20230111310A1, “CARBOXYLIC ACID DERIVATIVE-SUBSTITUTED IMINO ARYL COMPOUND, PREPARATION METHOD THEREFOR, HERBICIDAL COMPOSITION AND USE THEREOF” (Qingdao Kingagroot Chemical Compound Co., Ltd., priority 2020, published 2023).

Legend:
Format in all cases: in vivo
[1] = test system: Abutilon theophrasti; assay: Weeding effect in post-emergence stage; conditions: for Weeding effect in post-emergence stage, Abutilon theophrasti (level): fresh weight control rate level
Outline: (§1)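 Read-out is growth control rate, counted 3 weeks post-spray and averaged over three repeats. Greenhouse plants at the 2-3 leaf stage received spray-tower application at 500, 250, 125, 60, 30, 15 or 7.5 g/ha, with methyl oleate EC (1.5 liter/ha) and Tween 80 added.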

[2] = test system: Alopecurus japonicus; assay: Weeding effect in post-emergence stage; conditions: for Weeding effect in post-emergence stage, Alopecurus japonicus (level): fresh weight control rate level
Outline: as §1

[3] = test system: Digitaria sanguinalis; assay: Weeding effect in post-emergence stage; conditions: for Weeding effect in post-emergence stage, Digitaria sanguinalis (level): fresh weight control rate level
Outline: as §1

[4] = test system: Eleusine indica; assay: Weeding effect in post-emergence stage; conditions: for Weeding effect in post-emergence stage, Eleusine indica (level): fresh weight control rate level
Outline: as §1

[5] = test system: Setaria viridis; assay: Weeding effect in post-emergence stage; conditions: for Weeding effect in post-emergence stage, Setaria viridis (level): fresh weight control rate level
Outline: as §1

[6] = test system: Echinochloa crusgalli; assay: Weeding effect in post-emergence stage; conditions: for Weeding effect in post-emergence stage, Echinochloa crusgalli (level): fresh weight control rate level
Outline: as §1

[7] = test system: Abutilon theophrasti; assay: Weeding effect in pre-emergence stage; conditions: 30 g/ha, 4 weeks
Outline: (§2)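 Pots were kept in the greenhouse for 4 weeks and then rated for growth control on activity-level criteria. Spraying took place immediately after sowing at application rates of 500 to 7.5 g/ha, using an acetone/tween 80 formulation diluted with water, on seeds under 0.5-2 cm of soil.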

[8] = test system: Amaranthus retroflexus; assay: Weeding effect in pre-emergence stage; conditions: 30 g/ha, 4 weeks
Outline: as §2

[9] = test system: Capsella bursa-pastoris; assay: Weeding effect in pre-emergence stage; conditions: 30 g/ha, 4 weeks
Outline: as §2

[10] = test system: Descurainia sophia; assay: Weeding effect in pre-emergence stage; conditions: 30 g/ha, 4 weeks
Outline: as §2

[11] = test system: Setaria viridis; assay: Weeding effect in pre-emergence stage; conditions: 30 g/ha, 4 weeks
Outline: as §2

[12] = test system: Veronica didyma Tenore; assay: Weeding effect in pre-emergence stage; conditions: 30 g/ha, 4 weeks
Outline: as §2

[13] = test system: Peanut; assay: Pre-emergence stage, crop selectivity; conditions: 30 g/ha, 4 weeks
Outline: as §2

[14] = test system: Soybeans; assay: Pre-emergence stage, crop selectivity; conditions: 30 g/ha, 4 weeks
Outline: as §2

[15] = test system: corn; assay: Pre-emergence stage, crop selectivity; conditions: 30 g/ha, 4 weeks
Outline: as §2

[16] = test system: cotton; assay: Pre-emergence stage, crop selectivity; conditions: 30 g/ha, 4 weeks
Outline: as §2

[17] = test system: Leptochloa chinensis; assay: Weed control effect evaluation in rice field; conditions: rice field pot, 30 g/ha, 14 days after treatment
Source text: (§3) The activity level criteria for plant damage (i.e., growth control rate) are as follows:
(§4) Rice field soil was loaded into a 1/1,000,000 ha pot. The seeds of Echinochloa crusgalli. Scirpus juncoides. Bidens tripartita L., Monochoria vaginalis, and Leptochloa chinensis were sowed and gently covered with soil, then left to stand still in greenhouse in the state of 0.5-1 cm of water storage. The tuber of Sagittaria trifolia was planted in the next day or 2 days later. It was kept at 3-4 cm of water storage thereafter. The weeds were treated by dripping the WP or SC water diluents prepared according to the common preparation method of the compounds of the present invention with pipette homogeneously to achieve specified effective amount when Echinochloa crusgalli. Scirpus juncoides, Bidens tripartita L., Monochoria vaginalis, and Leptochloa chinensis reached 0.5 leaf stage and Sagittaria trifolia reached the time point of primary leaf stage.
(§5) The fertility condition of Echinochloa crusgalli. Scirpus juncoides. Bidens tripartita L., Monochoria vaginalis, Leptochloa chinensis and Sagittaria trifolia 14 days after the treatment of the compound of the invention and the fertility condition of rice 21 days after the treatment of the compound of the invention respectively with the naked eye. Evaluate the weed control effect with the above activity standard level. Many compounds show excellent activity and selectivity.

[18] = test system: Monochoria vaginalis; assay: Weed control effect evaluation in rice field; conditions: rice field pot, 30 g/ha, 14 days after treatment
Source text: as §3, §4, §5

[19] = test system: Scirpus juncoides; assay: Weed control effect evaluation in rice field; conditions: rice field pot, 30 g/ha, 14 days after treatment
Source text: as §3, §4, §5

[20] = test system: Rice; assay: Transplanted rice safety evaluation; conditions: transplanted japonica rice, 30 g/ha, 21 days after treatment
Description: as §3
In addition, the rice field soil that loaded into the 1/1,000,000 ha pot was leveled to keep water storage at 3-4 cm depth. The 5 leaf stage rice (japonica rice) was transplanted at 3 cm of transplanting depth the next day. The compound of the present invention was treated by the same way after 5 days of transplantation.
as §5

[21] = test system: Malachium aquaticum; assay: Composition activity test, post-emergence foliage spray; conditions: B 7.5 g a.i./ha
Description: are as follows, and the others were purchased from reagent companies. The technical materials were all dissolved in acetone and diluted with an aqueous solution containing 0.1% emulsifier Tween-80. The dilution is performed as required.
Weeds were cultivated by a pot culture method. […] Full and uniform weed seeds were selected, soaked in warm water at 25° C. for 6 hours, and germinated in a 28° C. biochemical incubator (darkness). The weed seeds that had just germinated were evenly placed on the surface of the soil and then covered with 0.5-1 cm soil according to the sizes of seeds.
The culture was carried out in a controllable sunlight greenhouse at 20 to 30° C., in natural light, and relative humidity of 57% to 72%.
3 pots with 20 weed seeds per pot were treated in one treatment with 4 replications per treatment.
The agents were used for only once in the experiment. In the stage of weeds with 1.5-2 leaves, the weeds were thinned out to maintain 10 weeds per pot and 30 weeds for each treatment, then continued to be cultured to Conyza Canadensis 10 cm in height, other weeds 3-4 leaves stage and treated.
The well-cultured weeds were evenly placed on a platform with an area of 0.5 m^2, and a solution of agents was sprayed on the stems and leaves thereof by the 3WP-2000-type walking spray tower at a dosage of 450 kg/ha and at a spray pressure of 0.3 MPa. After all the solution was sprayed, the valve was closed. After 30 seconds, the door of the spray tower was opened, and the nutritional bowl was taken out. Then the valve was opened, and the spray tube was cleaned by spraying 50 ml of water. After the treatment, the weeds were routinely cultured in a greenhouse.
A method for investigating absolute number was employed, wherein whole seedlings of survival weeds were cut off with a blade along the soil surface, and the fresh weight of the weeds was weighed with an analytical balance. For dead weeds, the fresh weight thereof was zero.
The investigation was performed after 21 days of the treatment for only once.
An optimum ratio of the two active ingredients was determined by the actual control effect, characteristics of herbicides, and balance of a corresponding formula. Wherein, in the formula, X represented the fresh weight inhibition rate of the active ingredient A in a dosage of P, and Y represented the fresh weight inhibition rate of the active ingredient B in a dosage of Q. The statistical results were shown in the table 6.

[22] = Dose 15 g/ha, level of fresh weight growth control rate

| Compound | activity level (growth control rate) Abutilon theophrasti [7] | activity level (growth control rate) Amaranthus retroflexus [8] | activity level (growth control rate) Capsella bursa-pastoris [9] | activity level (growth control rate) Descurainia sophia [10] | activity level (growth control rate) Setaria viridis [11] | activity level (growth control rate) Veronica didyma Tenore [12] | plant damage level Peanut [13] | plant damage level Soybeans [14] | plant damage level Corn [15] | plant damage level Cotton [16] | activity level (weed control effect) Leptochloa chinensis [17] | activity level (weed control effect) Monochoria vaginalis [18] | activity level (weed control effect) Scirpus juncoides [19] | plant damage level Rice [20] | further results |
| --- | --- | --- | --- | --- | --- | --- | --- | --- | --- | --- | --- | --- | --- | --- | --- |
| C[C@@H](O/N=C/c1cc(-n2c(=O)cc(C(F)(F)F)n(C)c2=O)c(F)cc1Cl)C(=O)OCC(F)(F)F [218(R)] | 5 (Level 5: growth control rate is above 85%) | 5 (Level 5: growth control rate is above 85%) | 5 (Level 5: growth control rate is above 85%) | 5 (Level 5: growth control rate is above 85%) | 5 (Level 5: growth control rate is above 85%) | 5 (Level 5: growth control rate is above 85%) | 0 (Level 0: growth control rate is less than 5%) | 0 (Level 0: growth control rate is less than 5%) | 0 (Level 0: growth control rate is less than 5%) | 0 (Level 0: growth control rate is less than 5%) | 5 (Level 5: growth control rate is above 85%) | 5 (Level 5: growth control rate is above 85%) | 5 (Level 5: growth control rate is above 85%) | 0 (Level 0: growth control rate is less than 5%) | Weeding effect in post-emergence stage, Abutilon theophrasti [1, 22]: 5 (Level 5: growth control rate is above 85%); Weeding effect in post-emergence stage, Alopecurus japonicus [2, 22]: 5 (Level 5: growth control rate is above 85%); Weeding effect in post-emergence stage, Digitaria sanguinalis [3, 22]: 5 (Level 5: growth control rate is above 85%); Weeding effect in post-emergence stage, Eleusine indica [4, 22]: 5 (Level 5: growth control rate is above 85%); Weeding effect in post-emergence stage, Setaria viridis [5, 22]: 5 (Level 5: growth control rate is above 85%); Weeding effect in post-emergence stage, Echinochloa crusgalli [6, 22]: 5 (Level 5: growth control rate is above 85%) |
| CC(C)N(C)S(=O)(=O)NC(=O)[C@@H](C)O/N=C/c1cc(-n2c(=O)cc(C(F)(F)F)n(C)c2=O)c(F)cc1Cl [421(R)] | 5 (Level 5: growth control rate is above 85%) | 5 (Level 5: growth control rate is above 85%) | 5 (Level 5: growth control rate is above 85%) | 5 (Level 5: growth control rate is above 85%) | 5 (Level 5: growth control rate is above 85%) | 5 (Level 5: growth control rate is above 85%) | 0 (Level 0: growth control rate is less than 5%) | 0 (Level 0: growth control rate is less than 5%) | 0 (Level 0: growth control rate is less than 5%) | 0 (Level 0: growth control rate is less than 5%) | 5 (Level 5: growth control rate is above 85%) | 5 (Level 5: growth control rate is above 85%) | 5 (Level 5: growth control rate is above 85%) | 0 (Level 0: growth control rate is less than 5%) | Weeding effect in post-emergence stage, Abutilon theophrasti (level) ([1]; Dose 15 g/ha): 5 (Level 5: growth control rate is above 85%); Weeding effect in post-emergence stage, Alopecurus japonicus (level) ([2]; Dose 15 g/ha): 5 (Level 5: growth control rate is above 85%); Weeding effect in post-emergence stage, Digitaria sanguinalis (level) ([3]; Dose 15 g/ha): 5 (Level 5: growth control rate is above 85%); Weeding effect in post-emergence stage, Eleusine indica (level) ([4]; Dose 15 g/ha): 5 (Level 5: growth control rate is above 85%); Weeding effect in post-emergence stage, Setaria viridis (level) ([5]; Dose 15 g/ha): 5 (Level 5: growth control rate is above 85%); Weeding effect in post-emergence stage, Echinochloa crusgalli (level) ([6]; Dose 15 g/ha): 5 (Level 5: growth control rate is above 85%) |
| C=CCOC(=O)C(C)(C)O/N=C/c1cc(-n2c(=O)cc(C(F)(F)F)n(C)c2=O)c(F)cc1Cl [Compound 434] | 5 (Level 5: growth control rate is above 85%) | 5 (Level 5: growth control rate is above 85%) | 5 (Level 5: growth control rate is above 85%) | 5 (Level 5: growth control rate is above 85%) | 5 (Level 5: growth control rate is above 85%) | 5 (Level 5: growth control rate is above 85%) | 0 (Level 0: growth control rate is less than 5%) | 0 (Level 0: growth control rate is less than 5%) | 0 (Level 0: growth control rate is less than 5%) | 0 (Level 0: growth control rate is less than 5%) | 5 (Level 5: growth control rate is above 85%) | 5 (Level 5: growth control rate is above 85%) | 5 (Level 5: growth control rate is above 85%) | 0 (Level 0: growth control rate is less than 5%) | Weeding effect in post-emergence stage, Abutilon theophrasti (level) ([1]; Dose 30 g/ha): 5 (Level 5: growth control rate is above 85%); Weeding effect in post-emergence stage, Alopecurus japonicus (level) ([2]; Dose 30 g/ha): 5 (Level 5: growth control rate is above 85%); Weeding effect in post-emergence stage, Digitaria sanguinalis (level) ([3]; Dose 30 g/ha): 5 (Level 5: growth control rate is above 85%); Weeding effect in post-emergence stage, Eleusine indica (level) ([4]; Dose 30 g/ha): 5 (Level 5: growth control rate is above 85%); Weeding effect in post-emergence stage, Setaria viridis (level) ([5]; Dose 30 g/ha): 5 (Level 5: growth control rate is above 85%); Weeding effect in post-emergence stage, Echinochloa crusgalli (level) ([6]; Dose 30 g/ha): 5 (Level 5: growth control rate is above 85%) |
| CCOC(=O)c1cnn(C)c1S(=O)(=O)NC(=O)Nc1nc(OC)cc(OC)n1 [pyrazosulfuron-ethyl, reference compound] | – | – | – | – | – | – | – | – | – | – | 2 (Level 2: growth control rate is greater than or equal to 20% and less than 40%) | 2 (Level 2: growth control rate is greater than or equal to 20% and less than 40%) | 1 (Level 1: growth control rate is greater than or equal to 5% and less than 20%) | 1 (Level 1: growth control rate is greater than or equal to 5% and less than 20%) | Control effect (%) of B applied alone (B) [21]: 35.7% |
